Target: T1, BcPPNE (Bacillus cereus, UniProt Q74NK7)
T1 construct: gene BCE_A0238; weak tetramer in solution
T1 sequence (Q74NK7 1-195): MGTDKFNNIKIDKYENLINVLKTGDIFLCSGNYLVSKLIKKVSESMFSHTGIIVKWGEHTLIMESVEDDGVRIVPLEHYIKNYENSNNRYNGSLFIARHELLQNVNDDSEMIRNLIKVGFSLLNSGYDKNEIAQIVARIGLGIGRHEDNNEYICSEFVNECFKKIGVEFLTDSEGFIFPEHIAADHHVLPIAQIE
Experiment: Thermofluor (thermal shift)
Type: binding
Conditions: no shift value printed

| Compound | Thermofluor (thermal shift) | Thermofluor (thermal shift) (crystals soaked at 1 mM showed no ligand density, L-Lys remained bound) |
| --- | --- | --- |
| N=C(N)NCCC[C@H](N)C(=O)O [L-arginine] | Thermofluor experiments indicated that BcPPNE also binds L-arginine and O-phospho-L-serine |  |
| N[C@@H](COP(=O)(O)O)C(=O)O [O-phospho-L-serine] |  | Thermofluor experiments indicated that BcPPNE also binds L-arginine and O-phospho-L-serine |

Reference: paper PMC3142127, “Structural Analysis of Papain-Like NlpC/P60 Superfamily Enzymes with a Circularly Permuted Topology Reveals Potential Lipid Binding Sites” (PLoS ONE, 2011)
